These results are taken from PMC7821381, “Multi-Targeted Anticancer Activity of Imidazolate Phosphane Gold(I) Compounds by Inhibition of DHFR and TrxR in Breast Cancer Cells” (Frontiers in Chemistry, 2021).

The test system of one assay is BLBC tumors. Further details: method as in Gambini et al., 2018. As to conditions: ref Gambini et al., 2018; cited from earlier work.
Assay [1] relates to thioredoxin reductase (TrxR). Particulars: MDA-MB231, 12 h treatment, 16 μM (maximum inhibition); control 3.01 ± 0.01. The method, then:
The assay was performed as previously reported (Galassi et al., [2012]) in 0.2 M Na, K-phosphate buffer (pH 7.4) containing 2 mM EDTA. The assay contained 0.12 mM NADPH and different amounts of cell lysate. The reaction was initiated by the addition of 3 mM 5,5′-dithiobis (2-nitrobenzoic acid) (DTNB) and the increase of absorbance was monitored at 412 nm over 5 min at 25°C.
Fig. 4S. Effects of gold(I) compounds 5 and 6 on redox enzyme thioredoxine reductase in MDA-MB231 cancer cells. The cells were incubated for 12 hours with different amount of tested compounds 5 and 6. After incubation, cells were washed twice with PBS and lysed. TrxR activity was tested by measuring NADPH-dependent reduction of DTNB (Galassi et al, 2012).

Assay [2] deals with T1, dihydrofolate reductase (DHFR) (Homo sapiens, UniProt P00374).
T1 construct: Cell lysates were collected using Cell Culture Lysis Reagent; endogenous in cells; host or cells: MDA-MB231 and SKBR3 (human breast cancer cells)
T1 sequence (P00374 1-187): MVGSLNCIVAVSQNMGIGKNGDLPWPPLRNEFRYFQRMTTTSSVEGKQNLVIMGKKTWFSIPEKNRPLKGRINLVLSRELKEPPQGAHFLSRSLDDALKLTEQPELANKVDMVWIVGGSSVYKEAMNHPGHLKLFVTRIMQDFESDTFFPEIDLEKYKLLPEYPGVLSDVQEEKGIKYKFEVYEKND
Nature of the assay: DHFR specific enzymatic activity in lysates of treated SKBR3 cells. The assay is classed as cell-based. Particulars: 6 μM (maximum inhibition). The method, then: SKBR3, MDA-MB-231 and A17 cells were plated onto 100 mm cell culture dishes (2 × 10^6 cells/ dish). The day after, cells were treated with vehicle alone (DMSO) as control or increasing concentrations of compound 5 and compound 6 in DMEM supplemented with 2% FBS (Invitrogen, Carlsbad, CA) for 4 h or 12 h. Representative pictures of cells treated with compound 5 or 6 at the indicated concentration for 4 or 12 h just before to take cell lysates for the enzymatic tests are reported as supplemental files. Cell lysates were collected using Cell Culture Lysis Reagent (Promega, Madison, WI) supplemented with BSA (1%) and protease inhibitors. DHFR activity was assessed by spectrophotometric assay as reported elsewhere (Wang et al., [2020]) in which the reaction rate was followed by recording the decreasing absorbance at 340 nm due to oxidation of NADPH to NADP^+, using a Shimadzu UV-2450 spectrophotometer. When necessary, because of low protein content in the lysates, the DHFR enzymatic activity was measured by a discontinuous direct HPLC assay using an Agilent 1100 system. HPLC-DAD (Agilent 1100) was used to detect and quantify the presence of NADP^+, as one of the products of DHFR catalyzed reaction, in cell lysates. Fifty microliter of the cell lysate were incubated at 37°C in a reaction mixture containing 760 μl of buffer (0.05 M Hepes pH 7.3), 20 μl of NADPH 4 mM, and 20 μl of dihydrofolate (H2F) 4 mM. The samples for HPLC analysis were prepared as follows: 50 μl aliquots of each mixture were stopped at different times (0, 5, 10, 20, 30, and 60 min) by adding 25 μl of HClO4 1.2 M; after 10 min on ice and centrifugation for 5 min at 12,000 g, 60 μl of each supernatant were neutralized by adding 17.5 μl of K2CO3 0.79 M, kept on ice and centrifuged again. Fifty microliter of the supernatant obtained were directly injected into the reversed phase column for separations of reagents and products of the enzyme catalyzed reaction. The column used is a Supelcosil LC RP 18 (4.6 × 250 mm) with pre-column SupelGuard. The HPLC settings are the same reported in Wang et al. ([2020]). The amounts of product (NADP^+) were determined from the peak areas of the HPLC-separated compounds with reference to appropriate standards. One enzyme unit is defined as the amount of enzyme which catalyzes the reduction of 1 μmol of dihydrofolate, per minute, at 37°C. Enzyme activities were normalized by the protein content, determined by the Bradford assay (Bradford, [1976]).

The target of assay [3] is T2, bovine serum albumin (BSA) (Bos taurus, UniProt P02769).
T2 construct: purchased Sigma Aldrich
T2 sequence (P02769 25-607): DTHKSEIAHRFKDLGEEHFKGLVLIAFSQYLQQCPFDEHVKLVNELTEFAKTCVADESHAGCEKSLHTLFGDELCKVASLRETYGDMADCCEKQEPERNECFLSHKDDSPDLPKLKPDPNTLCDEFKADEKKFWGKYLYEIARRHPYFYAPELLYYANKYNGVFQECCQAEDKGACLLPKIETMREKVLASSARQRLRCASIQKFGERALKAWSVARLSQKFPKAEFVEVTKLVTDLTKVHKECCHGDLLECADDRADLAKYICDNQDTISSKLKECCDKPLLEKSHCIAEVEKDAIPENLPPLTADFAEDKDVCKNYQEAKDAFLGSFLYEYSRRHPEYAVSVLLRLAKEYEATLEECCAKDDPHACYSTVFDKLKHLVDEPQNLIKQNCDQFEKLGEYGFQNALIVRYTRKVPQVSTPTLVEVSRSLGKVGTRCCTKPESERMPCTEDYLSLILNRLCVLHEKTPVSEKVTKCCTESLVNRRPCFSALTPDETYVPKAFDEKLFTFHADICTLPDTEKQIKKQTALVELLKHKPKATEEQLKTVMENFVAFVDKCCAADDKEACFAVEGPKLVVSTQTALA
Nature of the assay: BSA tryptophan fluorescence quenching. It counts as binding. As to conditions: Stern-Volmer constant, Tris-HCl pH 7.4, room temperature. How it is done: The protein-binding studies were performed by tryptophan fluorescence quenching experiments using bovine serum albumin (BSA) from Sigma Aldrich prepared in 10 mM Tris-HCl buffer pH 7.4, 10 mM NaCl. The concentration was determined by measuring the absorbance at 280 nm. Assuming a molecular weight of 66,400 and a molar extinction coefficient at 280 nm of 43,824 M^−1 cm^−1. Fluorescence measurements were recorded on a Hitachi 4,500 spectrofluorometer by keeping the concentration of BSA constant (15 × 10^−6 M) while increasing compounds 5 or 6 concentrations (5 mM in DMSO) were added to protein solution at room temperatures. Protein fluorescence intensity was recorded after each successive addition of gold compound solution and equilibration (ca. 5 min). Fluorescence spectra were recorded from 300 to 450 nm at an excitation wavelength of 285 nm. The value of Stern Volmer constants of the different metal complexes to BSA was evaluated following Equation 3 and fluorescent values were corrected by Equation 2.
Protein fluorescence intensity was recorded after each successive addition of complex solution and equilibration (ca. 5 min). Fluorescence spectra were recorded from 300 to 450 nm at an excitation wavelength of 285 nm. The value of Stern Volmer constants of the different metal complexes to BSA were evaluated following the equation 3 and fluorescent values were corrected by equation 2.

The subject of the next assay is DAPI-ct-DNA complex. Nature of the assay: Minor groove displacement assay with DAPI (DAPI-ct-DNA). The assay is classed as binding, calf. Particulars: competitive DAPI displacement, fluorescence quenching, pH 7.4. The method, then:
The changes in the emission spectra of DAPI complex with the DNA in 10 mM tris-HCl buffer at pH 7.4, 10 mM NaCl, were monitored upon addition of increasing concentrations of gold-compounds 5 and 6 at room temperature. Fluorescence quenching data were evaluated after excitation of DAPI-ct-DNA complex at 338 nm and recording the spectra from 400 to 600 nm. Values of Ksv constants were evaluated using Equation 3 and the quenching fluorescence values obtained were corrected according to Equation 2.

Setting [4] is: SKBR3, 4 h treatment, control 0.72 ± 0.05.
Where [5] appears, read: SKBR3, 12 h treatment, control 0.67 ± 0.10.

As for “4,5-dichloro-imidazolate-1yl-gold(I)-(triphenylphosphane) [Compound 6]”, the “activity against BLBC tumors transplanted in syngeneic mice compared with cisplatin” value in the assay with BLBC tumors is reported as “much more active than cisplatin”. Also, the “Specific enzymatic activity of TrxR” value in assay [1] is recorded as 1.95 ± 0.06 (16 μM) mU/mg. Also, the figures for the “Specific enzymatic activity of DHFR” value in assay [2] (setting [4]) and in assay [2] (setting [5]) were 0.64 ± 0.06 mU/mg and 0.34 ± 0.01 mU/mg, respectively. In assay [3], the “BSA Ksv” value is reported as 2.04 ± 0.71 10^4 M^−1. In addition, in the assay with DAPI-ct-DNA complex, the “DAPI-ct-DNA Ksv” value is 4.98 ± 0.08 10^3 M^−1.
For “4,5-dicyano-imidazolate-1yl-gold(I)-(triphenylphosphane) [Compound 5]”, in the assay with BLBC tumors, the “activity against BLBC tumors transplanted in syngeneic mice compared with cisplatin” value is “much more active than cisplatin”. The “Specific enzymatic activity of TrxR” value in assay [1] is on record as 1.59 ± 0.03 (16 μM) mU/mg. In addition, the “Specific enzymatic activity of DHFR” value in assay [2] (setting [4]) is on record as 0.54 ± 0.04 mU/mg; in assay [2] (setting [5]), 0.29 ± 0.05 mU/mg. Further, in assay [3], the “BSA Ksv” value was 2.46 ± 0.82 10^4 M^−1. In addition, the “DAPI-ct-DNA Ksv” value in the assay with DAPI-ct-DNA complex is recorded as 6.12 ± 0.09 10^3 M^−1.
